We go through eleven compounds from US6924302B2, “Substituted triazole diamine derivatives as kinase inhibitors” (Ortho McNeil Pharmaceutical, Inc., priority 2000, dated 2005).

For test [1], the target named is T1, Glycogen Synthase Kinase-3 (beta isoform) (Oryctolagus cuniculus, UniProt G1T8E2).
T1 construct: purchased New England Biolabs 6040; host or cells: E. coli
Briefly: Kinase Selectivity Assay Glycogen Synthase Kinase-3. Type of test: biochemical, rabbit. To be noted: Kinase Selectivity, Tables 2a-2k; read-out: GSK-3 IC50. As to the method: (§1) Assays to test compound inhibition of other kinases were preformed using methods that measure the amount of phosphorylation of a biotinylated peptide substrate. Biotinylated peptide substrates were selected from the literature as appropriate for the enzyme being evaluated. […] Assay conditions vary slightly for each protein kinase, for example, insulin receptor kinase requires 10 mM MnCl2 for activity and Calmodulin-dependent protein kinase requires calmodulin and 10 mM CaCl2. These assay conditions are known in the art. The reaction mixture was dispensed into the wells of a streptavidin coated Flashplate and 1 μl drug stock in 100% DMSO was added to a 100 μl reaction volume resulting in a final concentration of 1% DMSO on the reaction. Enzyme was diluted in 50 mM Tris-HCl pH=8.0, 0.1% BSA and add to each well. The reaction was incubated for one hour at 30° C. in the presence of compound. After one hour the reaction mix was aspirated from the plate and the plate was washed with PBS containing 100 mM EDTA. The plate was read on a scintillation counter to determine ^33P-γ-ATP incorporated into the immobilized peptide. Test compounds were assayed in duplicate at 8 concentrations [100 uM, 10 uM, 1 uM, 100 nM, 10 nM, 1 nM, 100 pM, 10 pM]. A maximum and minimum signal for the assay was determined on each plate. The IC50 was calculated from the dose response curve of the percent inhibition of the maximum signal in the assay according to the formula [max signal—background/test compound signal—background (100)=% inhibition] by graphing the percent inhibition against the log concentration of test compound. Known inhibitor compounds appropriate for the kinase being assayed were also included on each plate.
(§2) CDK2 in complex with cyclin A is commercially available (Upstate Biotech, Lake Placid, N.Y.). The CDK4 complex was composed of a mouse CDK4 protein and a mouse Cyclin D1 protein (The mouse CDK4 protein was genetically fused to an N-terminal Flag-epitope tag and the mouse Cyclin D1 protein was fused with an N-terminal AU-1 epitope tag. The genes encoding these proteins were transferred to commercially available baculoviral vectors. The recombinant CDK4/D1 complex was then made by co-infecting commercially available insect cells with viruses carrying these two constructs). […] ERK-1 protein (Discontinued from Calbiochem). EGFR (epidermal growth factor receptor) is purified from human A431 cell membranes (Sigma, St. Louis, Mo., Cat.# E3641).

Test [2] addresses T2, HER2 (human epidermal growth factor receptor-2) (Homo sapiens, UniProt P04626).
T2 construct: begins at amino acid 676 followed by the remainder of the HER2 cytoplasmic domain; polyhistidine (N)
Briefly: Kinase Selectivity Assay HER2. The class given is biochemical. In a few lines: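 Reactions ran one hour at 30° C in 1% DMSO with enzyme diluted in 50 mM Tris-HCl pH 8.0, 0.1% BSA. Scintillation counting read ^33P incorporated into immobilized biotinylated peptide.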

Test [3] deals with T3, CDK2 in complex with cyclin A (Homo sapiens, UniProt P24941).
T3 construct: purchased Upstate Biotech
Briefly: Kinase Selectivity Assay CDK2. The class given is biochemical. As to the method: as §1, §2

The target of a further test is T4, CDK1:Cyclin-B (Homo sapiens, UniProt P06493).
T4 construct: purchased New England Biolabs 6020; host or cells: insect cells
Briefly: CDK1 Screening Assay. The class given is biochemical. To be noted: read-out: CDK1 IC50. In a few lines:
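Human CDK1:cyclin-B (30 ng/well) with biotinylated histone-H1 peptide and ^33P-γ-ATP, 1 h at 30° C, 1% DMSO, on streptavidin FlashPlate; incorporation read by scintillation.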

For test [4], the target named is T5, VEGF-R (vascular endothelial growth factor receptor-2) (Rattus norvegicus, UniProt O08775).
T5 construct: polyhistidine (6xHIS) (N)
Briefly: VEGF-R Screening Assay. Type of test: biochemical. To be noted: read-out: VEGF-R IC50.

The target in test [5] is T6, MAP Kinase (ERK-2 isoform) (Rattus norvegicus, UniProt P63086).
T6 construct: polyhistidine (N); host or cells: E. coli
Briefly: Kinase Selectivity Assay MAP Kinase (ERK-2). To be noted: Kinase Selectivity, Tables 2a-2k; read-out: ERK 2 IC50. The class given is biochemical. As to the method: as §1, §2

The target in test [6] is T7, Calmodulin Kinase (calmodulin-dependent protein kinase 2) (Rattus norvegicus, UniProt P11275).
T7 construct: a truncated version of the alpha subunit of the rat protein; purchased New England Biolabs 6060; host or cells: insect cells
Briefly: Kinase Selectivity Assay Calmodulin Kinase. To be noted: Kinase Selectivity, Tables 2a-2k; read-out: Calmodulin Kinase 2 IC50. Type of test: biochemical. As to the method: as §1, §2

Test [7] has as its target T8, Casein Kinase 1 (CK1 delta isoform) (Rattus norvegicus, UniProt Q06486).
T8 construct: a truncation at amino acid 318 of the C-terminal portion of the rat CK1 delta isoform; purchased New England Biolabs 6030; host or cells: E. coli
T8 sequence (Q06486 1-317): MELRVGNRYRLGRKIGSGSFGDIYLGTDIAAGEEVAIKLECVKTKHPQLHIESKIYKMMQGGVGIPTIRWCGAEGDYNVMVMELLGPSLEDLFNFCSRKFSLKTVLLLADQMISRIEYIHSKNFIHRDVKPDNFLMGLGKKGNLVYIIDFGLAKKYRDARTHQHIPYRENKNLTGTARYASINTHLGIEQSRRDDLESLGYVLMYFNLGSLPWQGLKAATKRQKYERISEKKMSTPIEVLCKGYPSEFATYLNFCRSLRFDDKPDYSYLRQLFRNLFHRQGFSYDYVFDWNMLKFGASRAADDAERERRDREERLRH
Briefly: Kinase Selectivity Assay Casein Kinase 1. The class given is biochemical. To be noted: Tables 2a-2k, read-out: Caseine Kinase 1 IC50. As to the method:
as §1, §2

The next test addresses T9, Protein Kinase A (Bos taurus, UniProt P00517).
T9 construct: purified from bovine heart; purchased Upstate Biotech 14-114; host or cells: bovine heart
Briefly: Kinase Selectivity Assay Protein Kinase A. To be noted: Kinase Selectivity, Tables 2a-2k; read-out: PKA IC50. Type of test: biochemical, bovine. As to the method: as §1, §2

Test [8] has as its target T10, Casein Kinase 2 (alpha and beta subunits) (Homo sapiens, UniProt P68400).
T10 construct: purchased New England Biolabs 6010; host or cells: E. coli
Briefly: Kinase Selectivity Assay Casein Kinase 2. Type of test: biochemical. To be noted: Kinase Selectivity, Tables 2a-2k; read-out: Caseine Kinase 2 IC50. As to the method:
as §1, §2

For test [9], the target named is T11, PDGF-R (platelet derived growth factor receptor) beta subunit kinase domain (Homo sapiens, UniProt P09619).
T11 construct: nucleotides 1874-3507 of the human PDGF-R beta subunit kinase domain; polyhistidine (N)
Briefly: Kinase Selectivity Assay PDGF-R. The class given is biochemical. To be noted: Kinase Selectivity, Tables 2a-2k; read-out: PDGF-R kinase IC50. As to the method:
as §1, §2

The target in a further test is Insulin Receptor Kinase (Homo sapiens, UniProt P06213). Briefly: Kinase Selectivity Assay Insulin Receptor Kinase. The class given is biochemical. To be noted: Kinase Selectivity, Tables 2a-2k; read-out: Insulin R Kinase IC50. As to the method: as §1, §2
Setting [10] is: Kinase Selectivity, Tables 2a-2k, read-out: HER2 Kinase IC50.
The mark [11] stands for this setting: Kinase Selectivity, Tables 2a-2k.

pIC50: −log10 of the molar value. Read-outs that look alike come from different tables or passages of the source. A value given as a limit tells only on which side of the number the result lay.

T2 sequence (P04626 676-1255 limits assumed): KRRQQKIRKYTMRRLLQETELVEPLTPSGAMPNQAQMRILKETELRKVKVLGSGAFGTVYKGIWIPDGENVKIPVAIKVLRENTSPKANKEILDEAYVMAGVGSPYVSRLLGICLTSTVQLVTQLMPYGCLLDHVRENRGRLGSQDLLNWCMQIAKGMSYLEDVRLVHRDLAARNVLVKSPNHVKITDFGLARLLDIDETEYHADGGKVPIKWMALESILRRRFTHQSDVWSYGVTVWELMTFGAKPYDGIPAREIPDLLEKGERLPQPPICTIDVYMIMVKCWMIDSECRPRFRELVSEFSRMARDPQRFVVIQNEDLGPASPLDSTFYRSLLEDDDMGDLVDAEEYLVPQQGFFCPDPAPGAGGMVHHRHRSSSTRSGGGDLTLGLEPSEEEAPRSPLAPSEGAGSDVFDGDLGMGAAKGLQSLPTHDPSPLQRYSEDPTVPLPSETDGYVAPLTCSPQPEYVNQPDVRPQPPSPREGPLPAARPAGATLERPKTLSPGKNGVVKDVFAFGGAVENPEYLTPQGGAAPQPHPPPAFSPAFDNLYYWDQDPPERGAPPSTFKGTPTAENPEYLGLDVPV
T4 sequence (P06493 whole entry): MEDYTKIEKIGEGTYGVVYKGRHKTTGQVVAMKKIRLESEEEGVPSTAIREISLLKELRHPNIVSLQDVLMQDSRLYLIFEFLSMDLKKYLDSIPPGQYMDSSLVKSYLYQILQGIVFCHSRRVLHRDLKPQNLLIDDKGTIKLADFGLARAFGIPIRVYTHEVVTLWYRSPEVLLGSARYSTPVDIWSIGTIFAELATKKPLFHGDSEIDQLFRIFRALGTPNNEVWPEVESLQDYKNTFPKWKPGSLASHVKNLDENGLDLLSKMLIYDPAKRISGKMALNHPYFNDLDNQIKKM
T4 sequence (P14635 whole entry partner): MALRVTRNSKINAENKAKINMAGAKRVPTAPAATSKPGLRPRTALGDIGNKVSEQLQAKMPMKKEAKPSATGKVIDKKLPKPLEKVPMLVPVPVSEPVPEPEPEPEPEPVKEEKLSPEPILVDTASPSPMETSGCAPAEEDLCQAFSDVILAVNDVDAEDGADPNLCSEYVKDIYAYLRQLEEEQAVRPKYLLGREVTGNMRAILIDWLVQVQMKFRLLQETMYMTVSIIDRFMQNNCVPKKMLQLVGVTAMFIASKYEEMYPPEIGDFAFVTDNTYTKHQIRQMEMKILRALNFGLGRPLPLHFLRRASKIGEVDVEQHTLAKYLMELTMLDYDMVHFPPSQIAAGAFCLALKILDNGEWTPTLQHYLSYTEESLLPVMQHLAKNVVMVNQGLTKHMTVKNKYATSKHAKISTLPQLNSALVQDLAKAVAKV
T5 sequence (O08775 786-1343): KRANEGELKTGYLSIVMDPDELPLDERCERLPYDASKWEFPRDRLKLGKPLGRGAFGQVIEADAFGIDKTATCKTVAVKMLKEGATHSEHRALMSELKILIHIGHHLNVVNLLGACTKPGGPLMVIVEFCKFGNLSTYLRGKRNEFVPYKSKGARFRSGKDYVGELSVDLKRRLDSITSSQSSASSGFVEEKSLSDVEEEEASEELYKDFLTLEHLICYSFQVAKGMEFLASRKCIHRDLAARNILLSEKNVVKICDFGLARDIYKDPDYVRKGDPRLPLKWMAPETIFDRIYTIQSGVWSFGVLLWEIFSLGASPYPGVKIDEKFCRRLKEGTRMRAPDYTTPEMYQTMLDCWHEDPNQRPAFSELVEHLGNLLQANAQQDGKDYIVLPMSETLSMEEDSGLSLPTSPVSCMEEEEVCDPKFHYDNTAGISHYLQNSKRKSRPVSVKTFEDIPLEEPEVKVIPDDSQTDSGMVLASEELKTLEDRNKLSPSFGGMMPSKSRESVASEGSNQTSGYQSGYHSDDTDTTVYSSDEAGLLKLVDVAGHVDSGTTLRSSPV
T1 sequence (G1T8E2 1-432): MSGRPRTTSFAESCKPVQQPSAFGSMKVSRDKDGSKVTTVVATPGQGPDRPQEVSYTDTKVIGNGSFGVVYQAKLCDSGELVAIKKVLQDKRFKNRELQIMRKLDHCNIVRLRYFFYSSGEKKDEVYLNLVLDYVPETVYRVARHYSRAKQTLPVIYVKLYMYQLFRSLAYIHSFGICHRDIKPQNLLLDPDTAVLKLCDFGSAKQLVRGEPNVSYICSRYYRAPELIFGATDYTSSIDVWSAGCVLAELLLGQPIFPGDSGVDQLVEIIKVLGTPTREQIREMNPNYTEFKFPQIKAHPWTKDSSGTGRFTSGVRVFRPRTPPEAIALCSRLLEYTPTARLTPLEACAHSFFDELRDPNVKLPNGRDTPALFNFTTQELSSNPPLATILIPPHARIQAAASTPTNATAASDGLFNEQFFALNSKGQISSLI
T10 sequence (P68400 whole entry): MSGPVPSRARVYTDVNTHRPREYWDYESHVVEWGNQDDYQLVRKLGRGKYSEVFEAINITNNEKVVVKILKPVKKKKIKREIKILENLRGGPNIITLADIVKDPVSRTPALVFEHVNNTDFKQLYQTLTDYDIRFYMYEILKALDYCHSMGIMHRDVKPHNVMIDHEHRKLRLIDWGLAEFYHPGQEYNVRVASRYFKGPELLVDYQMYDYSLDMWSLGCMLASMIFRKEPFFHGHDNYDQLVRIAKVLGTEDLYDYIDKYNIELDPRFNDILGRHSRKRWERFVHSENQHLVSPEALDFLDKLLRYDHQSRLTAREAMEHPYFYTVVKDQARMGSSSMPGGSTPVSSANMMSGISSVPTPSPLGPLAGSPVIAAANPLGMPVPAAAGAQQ
T10 sequence (P67870 whole entry partner): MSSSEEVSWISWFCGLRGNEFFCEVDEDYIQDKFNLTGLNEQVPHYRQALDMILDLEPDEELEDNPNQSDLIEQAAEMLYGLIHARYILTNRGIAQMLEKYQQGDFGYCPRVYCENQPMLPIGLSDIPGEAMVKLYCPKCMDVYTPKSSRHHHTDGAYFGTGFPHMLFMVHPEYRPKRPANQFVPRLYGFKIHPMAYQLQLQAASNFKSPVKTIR
Insulin Receptor Kinase, sequence (P06213 980-1352): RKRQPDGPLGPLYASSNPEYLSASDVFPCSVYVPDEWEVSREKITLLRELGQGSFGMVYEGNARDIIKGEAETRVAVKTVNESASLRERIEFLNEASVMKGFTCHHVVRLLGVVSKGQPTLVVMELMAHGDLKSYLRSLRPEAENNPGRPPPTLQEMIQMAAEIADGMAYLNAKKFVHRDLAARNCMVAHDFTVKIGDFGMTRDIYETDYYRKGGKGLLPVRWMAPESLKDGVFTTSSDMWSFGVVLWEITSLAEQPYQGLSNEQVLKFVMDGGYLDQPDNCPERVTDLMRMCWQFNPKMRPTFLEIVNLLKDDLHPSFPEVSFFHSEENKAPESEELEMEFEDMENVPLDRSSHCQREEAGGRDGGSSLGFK
T11 sequence (P09619 564-1106): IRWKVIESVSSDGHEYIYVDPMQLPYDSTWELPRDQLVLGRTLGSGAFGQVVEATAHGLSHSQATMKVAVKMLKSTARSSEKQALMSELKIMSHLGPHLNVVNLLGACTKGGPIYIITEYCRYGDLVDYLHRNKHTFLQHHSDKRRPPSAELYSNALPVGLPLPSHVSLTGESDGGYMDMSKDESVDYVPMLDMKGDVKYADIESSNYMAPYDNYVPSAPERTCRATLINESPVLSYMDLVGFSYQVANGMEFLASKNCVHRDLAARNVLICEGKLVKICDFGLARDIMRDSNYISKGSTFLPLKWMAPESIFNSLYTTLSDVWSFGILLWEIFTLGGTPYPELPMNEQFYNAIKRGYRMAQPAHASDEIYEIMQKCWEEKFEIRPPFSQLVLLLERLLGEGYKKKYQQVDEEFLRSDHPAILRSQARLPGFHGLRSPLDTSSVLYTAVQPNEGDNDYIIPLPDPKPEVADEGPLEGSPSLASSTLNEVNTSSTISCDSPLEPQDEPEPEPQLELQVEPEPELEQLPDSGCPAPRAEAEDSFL
T6 sequence (P63086 whole entry, canonical isoform): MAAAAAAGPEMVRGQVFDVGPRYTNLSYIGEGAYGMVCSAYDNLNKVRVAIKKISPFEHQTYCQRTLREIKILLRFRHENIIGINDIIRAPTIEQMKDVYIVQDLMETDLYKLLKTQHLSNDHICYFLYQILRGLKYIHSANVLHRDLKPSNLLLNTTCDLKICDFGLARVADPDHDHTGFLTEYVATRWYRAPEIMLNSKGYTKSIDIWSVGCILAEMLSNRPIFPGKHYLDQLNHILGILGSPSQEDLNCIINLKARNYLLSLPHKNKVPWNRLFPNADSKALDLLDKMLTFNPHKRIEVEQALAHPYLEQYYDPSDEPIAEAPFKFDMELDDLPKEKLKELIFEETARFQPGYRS

With `Nc1nc(Nc2ccccc2)nn1C(=O)c1c(F)cccc1F` [Cpd 61, 1-(2,6-Difluorobenzoyl)-N^3-phenyl-1H-1,2,4-triazole-3,5-diamine], the pIC50 is 7.26 in test [1]; 6.09 in test [2] (setting [10]); 7.31 in test [3] (setting [11]); 6.74 at CDK1:Cyclin-B (setting [11]); 7.14 in test [4] (setting [11]).
For `Nc1nc(Nc2ccccc2)nn1C(=O)c1ccccc1` [Cpd 62, 1-benzoyl-N^3-phenyl-1H-1,2,4-triazole-3,5-diamine] the same measures were 7.14, 6.39, 6.54, 6.28 and 7.19.
Taken in the same sequence, the figures for `Nc1nc(Nc2cccc(Cl)c2)nn1C(=O)c1c(F)cccc1F` [Cpd 63, N^3-(3-chlorophenyl)-1-(2,6-difluorobenzoyl)-1H-1,2,4-triazole-3,5-diamine] were 7.14, 6.82, 7.25, 7.10 and 6.49.
For `Nc1nc(Nc2cccc(Cl)c2)nn1C(=O)c1ccccc1` [Cpd 64, 1-benzoyl-N^3-(3-chlorophenyl)-1H-1,2,4-triazole-3,5-diamine] the same measures were 7.68, 7.12, 6.70, 6.68 and 7.29.
On to `Nc1nc(Nc2ccccc2)nn1C(=O)Nc1ccccc1` [Cpd 65, 5-amino-N-phenyl-3-(phenylamino)-1H-1,2,4-triazole-1-carboxamide], for which the pIC50 in test [1] was 7.00; in test [2] (setting [10]) it was 6.10; in test [3] (setting [11]), 6.39; at CDK1:Cyclin-B (setting [11]), 6.17; in test [4] (setting [11]), 6.74.
`Nc1nc(Nc2ccc(S(N)(=O)=O)cc2)nn1C(=O)c1c(F)ccc(Cl)c1F` [Cpd 78, 4-[[5-amino-1-(3-chloro-2,6-difluorobenzoyl)-1H-1,2,4-triazol-3-yl]amino]-benzenesulfonamide]: the pIC50 in [2] (Table 1, read-out: HER2 IC50) was 6.11; in test [3] (Table 1) it was 8.77; at CDK1:Cyclin-B (Table 1), 8.18; in test [4] (Table 1), 6.38.
Taken in the same sequence, the figures for `CNc1nc(N)n(C(=O)c2sccc2C)n1` [Cpd 79, N^3-methyl-1-[(3-methyl-2-thienyl)carbonyl]-1H-1,2,4-triazole-3,5-diamine] were less than 4.00, less than 4.00, less than 4.00 and less than 4.00.
Consider `CN(C)CCNS(=O)(=O)c1ccc(Nc2nc(N)n(C(=O)c3c(F)cccc3F)n2)cc1` [Cpd 106], for which the pIC50 was 4.43 in [2] (Table 1, read-out: HER2 IC50); 9.00 in test [3] (Table 1); 6.90 at CDK1:Cyclin-B (Table 1); 6.25 in test [4] (Table 1).
Regarding `Nc1nc(Nc2ccccc2)n(C(=O)c2c(F)cccc2F)n1` [Cpd 124, 1-(2,6-difluorobenzoyl)-N^5-phenyl-1H-1,2,4-triazole-3,5-diamine], the pIC50 in test [1] is 5.52; in [2] (setting [10]), 6.09; in [3] (setting [11]) it was 5.77; at CDK1:Cyclin-B (setting [11]) it was 5.66; in test [4] (setting [11]), 5.32.
For `Nc1nc(Nc2ccccc2)n(C(=O)c2ccccc2)n1` [Cpd 125, 1-benzoyl-N^5-phenyl-1H-1,2,4-triazole-3,5-diamine] the same measures were less than 4.00, less than 4.00, 5.14, less than 4.00 and less than 4.00.
`Nc1nc(Nc2ccc(S(N)(=O)=O)cc2)n(C(=S)Nc2c(F)cccc2F)n1` [Cpd 128, 3-amino-5-[[4-(aminosulfonyl)phenyl]amino]-N-(2,6-difluorophenyl)-1H-1,2,4-triazole-1-carbothioamide]: the pIC50 is 7.03 in [1]; 5.68 in test [5]; 4.88 in [6]; 5.05 in test [7]; less than 4.00 on Protein Kinase A; less than 4.00 in test [8]. In addition, the pIC50 was 5.72 in test [9]; 8.48 in test [3] (Table 1); 5.58 on Insulin Receptor Kinase; 6.93 in test [4] (setting [11]); 6.93 in test [4] (Table 1).

A word on the pIC50: it is the IC50 on a negative log10 scale, so that one unit is a factor of ten.
